Data reported in ChEMBL document CHEMBL5113405, “Discovery, enantioselective synthesis of myrtucommulone E analogues as tyrosyl-DNA phosphodiesterase 2 inhibitors and their biological activities” (Eur J Med Chem, 2022).
Activity calls are given as the source filed them. No cut-off for these calls is given here.

Assays:
[1] = target: T1, Tyrosyl-DNA phosphodiesterase 2 (Homo sapiens, UniProt O95551); assay: Inhibition of N-terminal His-tagged human TDP2 expressed in Escherichia coli BL21 using 4-nitrophenyl phenylphosphonate as substrate incubated for 60 mins by EDTA based chromogenic assay
T1 sequence (O95551 whole entry): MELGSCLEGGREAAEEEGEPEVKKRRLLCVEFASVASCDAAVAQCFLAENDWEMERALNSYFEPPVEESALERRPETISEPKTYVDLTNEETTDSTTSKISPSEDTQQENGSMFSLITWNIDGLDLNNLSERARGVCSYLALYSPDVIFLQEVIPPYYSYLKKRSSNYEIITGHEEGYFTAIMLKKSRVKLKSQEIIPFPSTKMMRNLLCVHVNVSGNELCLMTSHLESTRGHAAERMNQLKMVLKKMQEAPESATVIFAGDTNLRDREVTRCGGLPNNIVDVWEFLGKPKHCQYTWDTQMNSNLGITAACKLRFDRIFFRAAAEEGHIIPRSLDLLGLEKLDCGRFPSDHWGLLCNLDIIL

DU-145 [2] = assay: Cytotoxicity against human DU-145 cells assessed as cell growth inhibition for 72 hrs by MTT assay; type: functional; details: Homo sapiens, DU-145, 72 h
[3] = Synergistic cytotoxicity against chicken DT40 cells assessed as combination index incubated for 72 hrs in presence of etoposide by MTT-based Chou-Talalay method; type: functional, Gallus gallus
DU-145 [4] = assay: Synergistic cytotoxicity against human DU-145 cells assessed as combination index incubated for 72 hrs in presence of etoposide by MTT-based Chou-Talalay method; type: functional
DU-145 [5] = assay: Synergistic cytotoxicity against human DU145 cells assessed as inhibition of colony formation at 5 uM incubated for 14 days in presence of etoposide by crystal violet staining based analysis; type: functional, cell-based; details: time 14.0 day
DU-145 [6] = assay: Synergistic cytotoxicity against human DU145 cells assessed as inhibition of colony formation at 5 uM incubated for 14 days in presence of doxorubicin by crystal violet staining based analysis; type: functional, cell-based; details: time 14.0 day
DU-145 [7] = assay: Cytotoxicity against human DU-145 cells assessed as cell growth inhibition for 72 hrs in presence of etoposide by MTT assay; type: functional
A549 = assay: Cytotoxicity against human A549 cells assessed as cell growth inhibition for 72 hrs by MTT assay; type: functional; details: Homo sapiens, A549, 72 h
DU-145 [8] = assay: Synergistic cytotoxicity against human DU-145 cells assessed as combination index incubated for 72 hrs in presence of doxorubicin by MTT-based Chou-Talalay method; type: functional
[9] = Synergistic cytotoxicity against chicken DT40 cells expressing human TDP2 assessed as combination index incubated for 72 hrs in presence of etoposide by MTT-based Chou-Talalay method; type: functional, Gallus gallus

- IC50 [1]: 5.4 µM
SMILES: CC(C)[C@@H]1C2=C(Oc3c1c(OCC(=O)N(C)C)cc1c3[C@@H](C(C)C)C3=C(O1)C(C)(C)C(=O)C(C)(C)C3=O)C(C)(C)C(=O)C(C)(C)C2=O
- GI50 (DU-145 [2]): 26 µM
- CI [3]: 0.95
- CI (DU-145 [4]): 0.26
- Activity (DU-145 [5]): Active
- Activity (DU-145 [6]): Active
- inhibition (INH) (DU-145 [7]): 77%
- GI50 (A549): 62 µM
- CI (DU-145 [8]): 0.81
- CI [9]: 0.48
